{
  "source": "patent US10407414B2",
  "about": "“Mannose derivatives for treating bacterial infections” (priority 2015, dated 2019)",
  "data": [
    {"system": "bacterial strain LF82 binding to the glycoprotein BSA-(Mannose)3 (FimH antagonists)", "assay": "Bacterial Binding Assay (BBA)", "assay_type": "cell-based, Escherichia coli", "settings": "read-out: Bacterial Binding Assay IC50 ± SEM", "description": "The purpose of the Bacterial Binding Assay (BBA) is to determine the inhibition activity of selective FimH antagonists on the bacterial strain LF82 binding to the glycoprotein BSA-(Mannose)3.\nBelow is a list of the Materials used to run the BBA are described below. • 1. LB broth: Supplier: Gibco, #10855 • 2. D-PBS: Supplier: Wisent, #311-425-CL • 3. LB agar plates • 4. 96-well black plate (high binding): Supplier: Costar, #3925 • 5. TopSeal™-A adhesive sealing films; Supplier PerkinElmer, #6005185 • 6. Carbonate-bicarbonate buffer pH 9.6 tablets, Supplier: Medicago, #09-8922-24 • 7. Water, Supplier: Gibco, #15230-162 • 8. Bovine serum albumin (BSA): Supplier: Sigma, #A-7888 • 9. (Man)3-BSA (α1-3, α1-6 Mannotriose-BSA, 1 mg), V-Labs, #NGP1336, lot# HGDX37-169-1 • 10. Tween 20: Supplier: Sigma, #P9416 • 11. Bright-Glo Luciferase Assay System: Supplier: Promega, #E2610 • 12. LF82/Luciferase strain: Invasive ability of an Escherichia coli strain isolated from the ileal mucosa of a patient with Crohn's disease. Boudeau J, Glasser A L, Masseret E, Joly B, Darfeuille-Michaud A, Infect Immun. 1999, 67(9), 4499-509\nSolutions and buffers used to run the BBA are described below. • 1. 0.04M carbonate-bicarbonate buffer (coating buffer) • 2. 40 μg/mL BSA-(Man)3: Dissolve 1 mg of (Man)3-BSA in 25 mL of water. • 3. 4000 μg/mL BSA • 4. 40 μg/mL BSA • 5. 1 μg/mL BSA-(Man)3: 150 μL of 40 μg/mL BSA-(Man)3+5.85 mL of 40 μg/mL BSA • 6. 0.5 μg/mL BSA-(Man)3 in 0.02M carbonate-bicarbonate buffer. • 7. 20 μg/mL BSA in 0.02M carbonate-bicarbonate buffer • 8. Blocking buffer (2% BSA/DPBS): 1 g of BSA in 50 mL D-PBS • 9. 2× binding buffer (0.2% BSA/D-PBS): 5 mL of blocking buffer+45 mL D-PBS. • 10. Washing buffer (D-PBS/0.01% Tween 20): 10 μL of Tween 20 in 100 mL D-PBS. • 11. 1× Bright-Glo Luciferase substrate: Dilute 1:1 the Bright-Glo Luciferase Assay System with D-PBS\nThe experimental protocol used in this example to run the BBA is described below.\nOvernight culture of LF82/Luciferase strain: Into two Falcon 50 mL tubes, add 20 mL of LB+20 μL of 50 mg/mL Kanamycin and inoculate with a loop from glycerol stock of the LF82/Luciferase strain. Incubate overnight at 37° C. with no shaking.\nGlycoprotein coating of 96-well plates: Add 100 μL/well of 0.5-2 μg/mL BSA-(Man)3. 20 μg/mL BSA is used as the control background. Seal plate using an adhesive sealing film and incubate overnight at room temperature. Wash the 96-well plate three times with 150 μL/well of D-PBS, add 170 μL/well of blocking solution and incubate 45 min (minimum) at room temperature.\nPreparation of bacterial suspension: Mix the two cultures tubes (40 mL) and perform a 1:10 dilution in LB (900 μl LB+100 μl culture. Measure optical density (OD) of the bacterial cultures. OD1 ˜5×10^8 cells/mL. Centrifuge LF82 culture for 20 min at 3500 rpm at room temperature. Re-suspend bacterial pellet in D-PBS and centrifuge again for 20 min at 3500 rpm. Re-suspend bacterial pellet in D-PBS to obtain a bacterial concentration of 2×10^9 bacteria/mL. Dilute 1/10 in D-PBS to obtain a final bacterial concentration of 2×10^8 bacteria/mL (=107 bacteria/50 μL). Perform 1/10 serial dilutions in LB of each bacterial suspension, plate 10 μL of dilutions on LB agar plates (final dilutions of 10^−7) and incubate overnight at 37° C. and count CFUs to determine the actual bacteria density in the assay.\nBacterial binding assay: Add 147 μL 2× binding buffer to compound plate (containing 3 μL of compound). After blocking step is performed (at least 45 min), wash plates three times with 200 μL/well of D-PBS. With a 100 μL multichannel manual pipettor, add 50 μL/well of compound diluted in 2× binding buffer. With a 100 μL multichannel manual pipettor, add 50 μL/well of bacterial suspension. Agitate at slow speed for 1 min and incubate 40-75 min at room temperature. Wash 5 times with 150 μL/well of washing buffer and then once with D-PBS. Add 100 μL/well of 1× Bright-Glo Luciferase substrate. […]", "units": {"IC50": "nM"}, "values": [
      {"smiles": "Cc1cc(=O)n(C)cc1-c1cc(C#C[C@H]2O[C@H](CO)[C@@H](O)[C@H](O)[C@@H]2O)c2[nH]ncc2c1", "note": "[Compound 76, 1,4-dimethyl-5-[7-[2-[(2R,3S,4R,5S,6R)-3,4,5-trihydroxy-6-(hydroxymethyl)tetrahydropyran-2-yl]ethynyl]-1H-indazol-5-yl]pyridin-2-one]", "IC50": "0.3 ± 0.09"},
      {"smiles": "COc1ncc(C)cc1-c1cc(C#C[C@H]2O[C@H](CO)[C@@H](O)[C@H](O)[C@@H]2O)c2[nH]ncc2c1", "note": "[Compound 78, (2R,3S,4R,5S,6R)-2-(hydroxymethyl)-6-[2-[5-(2-methoxy-5-methyl-3-pyridyl)-1H-indazol-7-yl]ethynyl]tetrahydropyran-3,4,5-triol]", "IC50": "2 ± 0.6"},
      {"smiles": "CC(C)(C)OC(=O)n1ccc(-c2cc(C#C[C@H]3O[C@H](CO)[C@@H](O)[C@H](O)[C@@H]3O)c3[nH]ncc3c2)c1", "note": "[Compound 72, tert-butyl 3-[7-[2-[(2R,3S,4R,5S,6R)-3,4,5-trihydroxy-6-(hydroxymethyl)tetrahydropyran-2-yl]ethynyl]-1H-indazol-5-yl]pyrrole-1-carboxylate]", "IC50": "7 ± 4"},
      {"smiles": "OC[C@H]1O[C@H](C#Cc2cc(-c3ccc4nccn4c3)cc3cn[nH]c23)[C@@H](O)[C@@H](O)[C@@H]1O", "note": "[Compound 32, (2R,3S,4R,5S,6R)-2-(hydroxymethyl)-6-[2-(5-imidazo[1,2-a]pyridin-6-yl-1H-indazol-7-yl)ethynyl]tetrahydropyran-3,4,5-triol]", "IC50": "0.6 ± 0.005"},
      {"smiles": "OC[C@H]1O[C@H](C#Cc2cc(Br)cc3cn[nH]c23)[C@@H](O)[C@@H](O)[C@@H]1O", "note": "[Compound 16, (2R,3S,4R,5S,6R)-2-[2-(5-bromo-1H-indazol-7-yl)ethynyl]-6-(hydroxymethyl)tetrahydropyran-3,4,5-triol]", "IC50": "8 ± 1"},
      {"smiles": "CNC(=O)c1cc(C#C[C@H]2O[C@H](CO)[C@@H](O)[C@H](O)[C@@H]2O)c2[nH]ncc2c1", "note": "[Compound 62, N-methyl-7-[2-[(2R,3S,4R,5S,6R)-3,4,5-trihydroxy-6-(hydroxymethyl)tetrahydropyran-2-yl]ethynyl]-1H-indazole-5-carboxamide]", "IC50": "34 ± 20"},
      {"smiles": "OC[C@H]1O[C@H](C#Cc2cc(C#Cc3ccccc3)cc3cn[nH]c23)[C@@H](O)[C@@H](O)[C@@H]1O", "note": "[Compound 45, (2R,3S,4R,5S,6R)-2-(hydroxymethyl)-6-[2-[5-(2-phenylethynyl)-1H-indazol-7-yl]ethynyl]tetrahydropyran-3,4,5-triol]", "IC50": "15 ± 3"},
      {"smiles": "OC[C@H]1O[C@H](C#Cc2cc(C3=CCCC3)cc3cn[nH]c23)[C@@H](O)[C@@H](O)[C@@H]1O", "note": "[Compound 70, (2R,3S,4R,5S,6R)-2-[2-[5-(cyclopenten-1-yl)-1H-indazol-7-yl]ethynyl]-6-(hydroxymethyl)tetrahydropyran-3,4,5-triol]", "IC50": "0.2 ± 0.04"},
      {"smiles": "CC(C)(C)C#Cc1cc(C#C[C@H]2O[C@H](CO)[C@@H](O)[C@H](O)[C@@H]2O)c2[nH]ncc2c1", "note": "[Compound 44, (2R,3S,4R,5S,6R)-2-[2-[5-(3,3-dimethylbut-1-ynyl)-1H-indazol-7-yl]ethynyl]-6-(hydroxymethyl)tetrahydropyran-3,4,5-triol]", "IC50": "5 ± 0.5"},
      {"smiles": "CCOC(=O)C1CC=C(c2cc(C#C[C@H]3O[C@H](CO)[C@@H](O)[C@H](O)[C@@H]3O)c3[nH]ncc3c2)CC1", "note": "(stereo partly drawn) [Compound 71, ethyl 4-[7-[2-[(2R,3S,4R,5S,6R)-3,4,5-trihydroxy-6-(hydroxymethyl)tetrahydropyran-2-yl]ethynyl]-1H-indazol-5-yl]cyclohex-3-ene-1-carboxylate]", "IC50": "0.6 ± 0.2"},
      {"smiles": "COc1cccc(-c2cc(C#C[C@H]3O[C@H](CO)[C@@H](O)[C@H](O)[C@@H]3O)c3[nH]ncc3c2)c1", "note": "[Compound 38, (2R,3S,4R,5S,6R)-2-(hydroxymethyl)-6-[2-[5-(3-methoxyphenyl)-1H-indazol-7-yl]ethynyl]tetrahydropyran-3,4,5-triol]", "IC50": "0.8 ± 0.5"},
      {"smiles": "OC[C@H]1O[C@H](C#Cc2cc(-c3ccccc3)cc3cn[nH]c23)[C@@H](O)[C@@H](O)[C@@H]1O", "note": "[Compound 25, (2R,3S,4R,5S,6R)-2-(hydroxymethyl)-6-[2-(5-phenyl-1H-indazol-7-yl)ethynyl]tetrahydropyran-3,4,5-triol]", "IC50": "0.4 ± 0.04"},
      {"smiles": "O=C(c1cc(C#C[C@H]2O[C@H](CO)[C@@H](O)[C@H](O)[C@@H]2O)c2[nH]ncc2c1)N1CCOCC1", "note": "[Compound 61, morpholino-[7-[2-[(2R,3S,4R,5S,6R)-3,4,5-trihydroxy-6-(hydroxymethyl)tetrahydropyran-2-yl]ethynyl]-1H-indazol-5-yl]methanone]", "IC50": "0.6 ± 0.1"},
      {"smiles": "Cn1cnc2ccc(-c3cc(C#C[C@H]4O[C@H](CO)[C@@H](O)[C@H](O)[C@@H]4O)c4[nH]ncc4c3)cc21", "note": "[Compound 33, (2R,3S,4R,5S,6R)-2-(hydroxymethyl)-6-[2-[5-(3-methylbenzimidazol-5-yl)-1H-indazol-7-yl]ethynyl]tetrahydropyran-3,4,5-triol]", "IC50": "0.4 ± 0.05"},
      {"smiles": "CCN(CC)CC#Cc1cc(C#C[C@H]2O[C@H](CO)[C@@H](O)[C@H](O)[C@@H]2O)c2[nH]ncc2c1", "note": "[Compound 53, (2R,3S,4R,5S,6R)-2-[2-[5-[3-(diethylamino)prop-1-ynyl]-1H-indazol-7-yl]ethynyl]-6-(hydroxymethyl)tetrahydropyran-3,4,5-triol]", "IC50": "4 ± 0.5"},
      {"smiles": "CCc1ccc(/C=C/c2cc(C#C[C@H]3O[C@H](CO)[C@@H](O)[C@H](O)[C@@H]3O)c3[nH]ncc3c2)cc1", "note": "[Compound 69, (2R,3S,4R,5S,6R)-2-[2-[5-[(E)-2-(4-ethylphenyl)vinyl]-1H-indazol-7-yl]ethynyl]-6-(hydroxymethyl)tetrahydropyran-3,4,5-triol]", "IC50": "13 ± 9"},
      {"smiles": "COc1ccc(Cn2ncc3cc(Br)cc(C#C[C@H]4O[C@H](CO)[C@@H](O)[C@H](O)[C@@H]4O)c32)cc1", "note": "[Compound 18, (2R,3S,4R,5S,6R)-2-[2-[5-bromo-1-[(4-methoxyphenyl)methyl]indazol-7-yl]ethynyl]-6-(hydroxymethyl)tetrahydropyran-3,4,5-triol]", "IC50": "67 ± 26"},
      {"smiles": "CNC(=O)c1cc(-c2cc(C#C[C@H]3O[C@H](CO)[C@@H](O)[C@H](O)[C@@H]3O)c3[nH]ncc3c2)ccn1", "note": "[Compound 92, N-methyl-4-[7-[2-[(2R,3S,4R,5S,6R)-3,4,5-trihydroxy-6-(hydroxymethyl)tetrahydropyran-2-yl]ethynyl]-1H-indazol-5-yl]pyridine-2-carboxamide]", "IC50": 1},
      {"smiles": "CNC(=O)c1cncc(-c2cc(C#C[C@H]3O[C@H](CO)[C@@H](O)[C@H](O)[C@@H]3O)c3[nH]ncc3c2)c1", "note": "[Compound 42, N-methyl-5-[7-[2-[(2R,3S,4R,5S,6R)-3,4,5-trihydroxy-6-(hydroxymethyl)tetrahydropyran-2-yl]ethynyl]-1H-indazol-5-yl]pyridine-3-carboxamide]", "IC50": "0.6 ± 0.2"},
      {"smiles": "OC[C@H]1O[C@H](C#Cc2cc(C3=CCOCC3)cc3cn[nH]c23)[C@@H](O)[C@@H](O)[C@@H]1O", "note": "[Compound 68, (2R,3S,4R,5S,6R)-2-[2-[5-(3,6-dihydro-2H-pyran-4-yl)-1H-indazol-7-yl]ethynyl]-6-(hydroxymethyl)tetrahydropyran-3,4,5-triol]", "IC50": "1 ± 0.4"}
    ]}
  ]
}
